Source: US10899753B2, “Inhibiting agents for Bruton's tyrosine kinase” (BIOGEN MA INC., priority 2018, dated 2021)
pIC50: −log10 of the molar value.

Legend:
BTK [1] = biological target: T1, BTK (Homo sapiens (Human), UniProt Q06187); assay: In Vitro PD Assay in Human Whole Blood (pBTK assay); format: cell-based; details: human heparinized whole blood, 37° C. for 30 min, total BTK capture and phosphotyrosine detection (ECL)
Method: In Vitro PD Assay in Human Whole Blood
Human heparinized venous blood was purchased from Bioreclamation, Inc. or SeraCare Life Sciences and shipped overnight. Whole blood was aliquoted into 96-well plate and “spiked” with serial dilutions of test compound in DMSO or with DMSO without drug. The final concentration of DMSO in all wells was 0.1%. The plate was incubated at 37° C. for 30 min. Lysis buffer containing protease and phosphatase inhibitors was added to the drug-containing samples and one of the DMSO-only samples (+PPi, high control), while lysis buffer containing protease inhibitors was added to the other DMSO-only samples (−PPi, low control). All of the lysed whole blood samples were subjected to the total BTK capture and phosphotyrosine detection method described in US20160311802, incorporated herein by reference.

BTK [2] = biological target: T1, BTK; assay: In Vitro BTK Kinase Assay: BTK-POLYGAT-LS ASSAY; format: biochemical; details: fluorescein-labeled polyGAT peptide 100 nM, BTK enzyme 0.25 nM, 30 minutes, TRF
Method: In Vitro BTK Kinase Assay: BTK-POLYGAT-LS ASSAY
The purpose of the BTK in vitro assay is to determine compound potency against BTK through the measurement of IC50. […] For a typical assay, a […] aliquot of a ATP/peptide master mix (final concentration; ATP […], polyGAT 100 nM) in kinase buffer (10 mM Tris-HCl pH 7.5, 10 mM MgCl2, 200 μM Na3PO4, 5 mM DTT, 0.01% Triton X-100, and 0.2 mg/ml casein) is added to each well. […] The assay is incubated for 30 minutes before being stopped with 28 μL of a 50 mM EDTA solution. […] The plate is covered and incubated for 45 minutes at room temperature. Time resolved fluorescence (TRF) on Molecular Devices M5 (332 nm excitation; 488 nm emission; 518 nm fluorescein emission) is measured.

T1 sequence (Q06187 whole entry): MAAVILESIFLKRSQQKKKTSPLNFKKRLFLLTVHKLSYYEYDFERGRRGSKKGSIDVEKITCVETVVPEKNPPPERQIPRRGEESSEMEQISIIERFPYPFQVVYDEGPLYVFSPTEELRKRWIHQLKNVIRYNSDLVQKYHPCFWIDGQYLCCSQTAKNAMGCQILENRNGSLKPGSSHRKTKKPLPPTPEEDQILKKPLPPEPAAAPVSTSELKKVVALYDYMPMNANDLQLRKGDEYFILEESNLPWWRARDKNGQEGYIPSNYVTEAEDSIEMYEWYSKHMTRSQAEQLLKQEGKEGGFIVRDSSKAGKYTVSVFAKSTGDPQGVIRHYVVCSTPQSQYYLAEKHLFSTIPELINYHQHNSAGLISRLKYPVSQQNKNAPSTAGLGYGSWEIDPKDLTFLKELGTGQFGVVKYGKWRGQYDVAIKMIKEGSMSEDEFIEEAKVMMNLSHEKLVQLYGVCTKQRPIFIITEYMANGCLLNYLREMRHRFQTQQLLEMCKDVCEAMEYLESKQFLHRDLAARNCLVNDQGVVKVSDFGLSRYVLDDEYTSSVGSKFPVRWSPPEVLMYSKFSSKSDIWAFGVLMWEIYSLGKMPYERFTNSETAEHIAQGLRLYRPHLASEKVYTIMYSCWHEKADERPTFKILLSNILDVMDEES

Compound `Cc1cc(-c2ncnc(Nc3ccn(C)n3)n2)ccc1CNC(=O)c1nc(C(C)(C)C)no1` [Compound 2, 3-(tert-butyl)-N-(2-methyl-4-(4-((1-methyl-1H-pyrazol-3-yl)amino)-1,3,5-triazin-2-yl)benzyl)-1,2,4-oxadiazole-5-carboxamide] has a pIC50 (BTK [1]) of 5.00 to 6.30 and a pIC50 (BTK [2]) greater than 9.00.

In the case of `Cc1cc(-c2ncnc(Nc3ccn(C)n3)n2)ccc1CNC(=O)c1cnc(C(C)(C)C)o1` [Compound 3, 2-(tert-butyl)-N-(2-methyl-4-(4-((1-methyl-1H-pyrazol-3-yl)amino)-1,3,5-triazin-2-yl)benzyl)oxazole-5-carboxamide], the pIC50 (BTK [1]) was 5.00 to 6.30 and the pIC50 (BTK [2]) was 8.00 to 9.00.

In the case of `Cc1cc(-c2ncnc(Nc3ccn(C)n3)n2)ccc1CNC(=O)c1nn(C(C)(C)C)cc1F` [Compound 4, 1-(tert-butyl)-4-fluoro-N-(2-methyl-4-(4-((1-methyl-1H-pyrazol-3-yl)amino)-1,3,5-triazin-2-yl)benzyl)-1H-pyrazole-3-carboxamide], the pIC50 (BTK [1]) was less than 5.00 and the pIC50 (BTK [2]) was 8.00 to 9.00.

With `Cn1ccc(Nc2ncnc(-c3ccc(CNC(=O)c4noc(C(C)(C)C)n4)c(Cl)c3)n2)n1` [Compound 5, 5-(tert-butyl)-N-(2-chloro-4-(4-((1-methyl-1H-pyrazol-3-yl)amino)-1,3,5-triazin-2-yl)benzyl)-1,2,4-oxadiazole-3-carboxamide] the pIC50 (BTK [1]) was 5.00 to 6.30 and the pIC50 (BTK [2]) was 8.00 to 9.00.

In the case of `Cn1ccc(Nc2ncnc(-c3ccc(CNC(=O)c4nc(C(C)(C)C)no4)c(Cl)c3)n2)n1` [Compound 6, 3-(tert-butyl)-N-(2-chloro-4-(4-((1-methyl-1H-pyrazol-3-yl)amino)-1,3,5-triazin-2-yl)benzyl)-1,2,4-oxadiazole-5-carboxamide], the pIC50 (BTK [1]) was 5.00 to 6.30 and the pIC50 (BTK [2]) was greater than 9.00.

For `Cn1ccc(Nc2ncnc(-c3ccc(CNC(=O)c4noc(C(C)(C)C)n4)c(C(F)(F)F)c3)n2)n1` [Compound 7, 5-(tert-butyl)-N-(4-(4-((1-methyl-1H-pyrazol-3-yl)amino)-1,3,5-triazin-2-yl)-2-(trifluoromethyl)benzyl)-1,2,4-oxadiazole-3-carboxamide], the pIC50 (BTK [2]) was 8.00 to 9.00.

`Cn1ccc(Nc2ncnc(-c3ccc(CNC(=O)c4nc(C(C)(C)C)no4)c(C(F)(F)F)c3)n2)n1` [Compound 8, 3-(tert-butyl)-N-(4-(4-((1-methyl-1H-pyrazol-3-yl)amino)-1,3,5-triazin-2-yl)-2-(trifluoromethyl)benzyl)-1,2,4-oxadiazole-5-carboxamide] was tested, and the pIC50 (BTK [2]) was 8.00 to 9.00.

In the case of `Cc1c(CNC(=O)c2noc(C(C)(C)C)n2)ccc(-c2ncnc(Nc3ccn(C)n3)n2)c1F` [Compound 9, 5-(tert-butyl)-N-(3-fluoro-2-methyl-4-(4-((1-methyl-1H-pyrazol-3-yl)amino)-1,3,5-triazin-2-yl)benzyl)-1,2,4-oxadiazole-3-carboxamide], the pIC50 (BTK [1]) was 6.30 to 7.00 and the pIC50 (BTK [2]) was greater than 9.00.

`Cc1c(CNC(=O)c2nc(C(C)(C)C)no2)ccc(-c2ncnc(Nc3ccn(C)n3)n2)c1F` [Compound 10, 3-(tert-butyl)-N-(3-fluoro-2-methyl-4-(4-((1-methyl-1H-pyrazol-3-yl)amino)-1,3,5-triazin-2-yl)benzyl)-1,2,4-oxadiazole-5-carboxamide] showed a pIC50 (BTK [2]) greater than 9.00.

`Cc1cc(-c2ncnc(Nc3cnn(C)c3)n2)ccc1CNC(=O)c1noc(C(C)(C)C)n1` [Compound 11, 5-(tert-butyl)-N-(2-methyl-4-(4-((1-methyl-1H-pyrazol-4-yl)amino)-1,3,5-triazin-2-yl)benzyl)-1,2,4-oxadiazole-3-carboxamide] was tested, and the pIC50 (BTK [1]) was 6.30 to 7.00 and the pIC50 (BTK [2]) was greater than 9.00.

With `Cc1cc(-c2ncnc(Nc3cnn(C)c3)n2)ccc1CNC(=O)c1nc(C(C)(C)C)no1` [Compound 12, 3-(tert-butyl)-N-(2-methyl-4-(4-((1-methyl-1H-pyrazol-4-yl)amino)-1,3,5-triazin-2-yl)benzyl)-1,2,4-oxadiazole-5-carboxamide] the pIC50 (BTK [1]) was 6.30 to 7.00 and the pIC50 (BTK [2]) was greater than 9.00.

`Cc1c(CNC(=O)c2noc(C(C)(C)C)n2)ccc(-c2ncnc(Nc3cnn(C)c3)n2)c1F` [Compound 13, 5-(tert-butyl)-N-(3-fluoro-2-methyl-4-(4-((1-methyl-1H-pyrazol-4-yl)amino)-1,3,5-triazin-2-yl)benzyl)-1,2,4-oxadiazole-3-carboxamide] gave a pIC50 (BTK [1]) greater than 7.00 and a pIC50 (BTK [2]) greater than 9.00.

Compound `Cc1c(CNC(=O)c2nc(C(C)(C)C)no2)ccc(-c2ncnc(Nc3cnn(C)c3)n2)c1F` [Compound 14, 3-(tert-butyl)-N-(3-fluoro-2-methyl-4-(4-((1-methyl-1H-pyrazol-4-yl)amino)-1,3,5-triazin-2-yl)benzyl)-1,2,4-oxadiazole-5-carboxamide] has a pIC50 (BTK [1]) greater than 7.00 and a pIC50 (BTK [2]) greater than 9.00.

`Cn1cc(Nc2ncnc(-c3ccc(CNC(=O)c4noc(C(C)(C)C)n4)c(Cl)c3)n2)cn1` [Compound 15, 5-(tert-butyl)-N-(2-chloro-4-(4-((1-methyl-1H-pyrazol-4-yl)amino)-1,3,5-triazin-2-yl)benzyl)-1,2,4-oxadiazole-3-carboxamide] gave a pIC50 (BTK [1]) of 6.30 to 7.00 and a pIC50 (BTK [2]) greater than 9.00.

In the case of `Cn1cc(Nc2ncnc(-c3ccc(CNC(=O)c4nc(C(C)(C)C)no4)c(Cl)c3)n2)cn1` [Compound 16, 3-(tert-butyl)-N-(2-chloro-4-(4-((1-methyl-1H-pyrazol-4-yl)amino)-1,3,5-triazin-2-yl)benzyl)-1,2,4-oxadiazole-5-carboxamide], the pIC50 (BTK [1]) was 6.30 to 7.00 and the pIC50 (BTK [2]) was greater than 9.00.

`Cn1cc(Nc2ncnc(-c3ccc(CNC(=O)c4nc(C(C)(C)C)no4)c(C(F)(F)F)c3)n2)cn1` [Compound 18, 3-(tert-butyl)-N-(4-(4-((1-methyl-1H-pyrazol-4-yl)amino)-1,3,5-triazin-2-yl)-2-(trifluoromethyl)benzyl)-1,2,4-oxadiazole-5-carboxamide] showed a pIC50 (BTK [2]) greater than 9.00.

`Cn1ccc(Nc2ncnc(-c3ccc(CNC(=O)c4noc(C(C)(C)C)n4)c(C(F)(F)F)c3F)n2)n1` [Compound 19, 5-(tert-butyl)-N-(3-fluoro-4-(4-((1-methyl-1H-pyrazol-3-yl)amino)-1,3,5-triazin-2-yl)-2-(trifluoromethyl)benzyl)-1,2,4-oxadiazole-3-carboxamide] showed a pIC50 (BTK [2]) of 8.00 to 9.00.

`Cn1cc(Nc2ncnc(-c3ccc4c(c3)CN(C3COC3)CC[C@H]4NC(=O)c3cn(C(C)(C)C)nn3)n2)cn1` [Compound 24, 1-tert-butyl-N-[(5R)-8-[4-[(1-methylpyrazol-4-yl)amino]-1,3,5-triazin-2-yl]-2-(oxetan-3-yl)-1,3,4,5-tetrahydro-2-benzazepin-5-yl]triazole-4-carboxamide] showed a pIC50 (BTK [1]) greater than 7.00.

Work on `Cn1ccc(Nc2ncnc(-c3ccc4c(c3)CN(CC(F)(F)F)CC[C@H]4NC(=O)c3noc(C(C)(C)C)n3)n2)n1` [Compound 25, 5-tert-butyl-N-[(5R)-8-[4-[(1-methylpyrazol-3-yl)amino]-1,3,5-triazin-2-yl]-2-(2,2,2-trifluoroethyl)-1,3,4,5-tetrahydro-2-benzazepin-5-yl]-1,2,4-oxadiazole-3-carboxamide] yielded a pIC50 (BTK [1]) greater than 7.00.

`Cc1cc(-c2ncnc(Nc3cnn(C)c3)n2)ccc1CNC(=O)c1cc(C(C)(C)C)on1` [Compound 38] showed a pIC50 (BTK [1]) of 6.30 to 7.00.

In the case of `Cc1cc(-c2ncnc(Nc3cnn(C)c3)n2)ccc1CNC(=O)c1noc(C2[C@@H](C)[C@H]2C)n1` (stereo partly drawn) [Compound 41, 5-(2,3-cis-dimethylcyclopropyl)-N-(2-methyl-4-(4-((1-methyl-1H-pyrazol-4-yl)amino)-1,3,5-triazin-2-yl)benzyl)-1,2,4-oxadiazole-3-carboxamide], the pIC50 (BTK [1]) was 5.00 to 6.30.

`Cn1ccc(Nc2ncnc(-c3ccc(CNC(=O)c4noc(C(C)(C)C)n4)c(CC(F)F)c3)n2)n1` [Compound 67, 5-(tert-butyl)-N-(2-(2,2-difluoroethyl)-4-(4-((1-methyl-1H-pyrazol-3-yl)amino)-1,3,5-triazin-2-yl)benzyl)-1,2,4-oxadiazole-3-carboxamide] was tested, and the pIC50 (BTK [2]) was 8.00 to 9.00.

`C[C@@H](NC(=O)c1nc(C(C)(C)C)no1)c1ccc(-c2ncnc(Nc3cnn(C)c3)n2)c(F)c1Cl` [Compound 70, (R)-3-(tert-butyl)-N-(1-(2-chloro-3-fluoro-4-(4-((1-methyl-1H-pyrazol-4-yl)amino)-1,3,5-triazin-2-yl)phenyl)ethyl)-1,2,4-oxadiazole-5-carboxamide] showed a pIC50 (BTK [1]) greater than 7.00.

In the case of `C[C@@H](NC(=O)c1nc(C(C)(C)C)no1)c1ccc(-c2ncnc(Nc3ccn(C)n3)n2)c(F)c1C(F)F` [Compound 83, (R)-3-(tert-butyl)-N-(1-(2-(difluoromethyl)-3-fluoro-4-(4-((1-methyl-1H-pyrazol-3-yl)amino)-1,3,5-triazin-2-yl)phenyl)ethyl)-1,2,4-oxadiazole-5-carboxamide], the pIC50 (BTK [2]) was 8.00 to 9.00.

Work on `Cc1cc(-c2ncnc(Nc3cnn(C)c3)n2)ccc1CNC(=O)c1nnc(C(C)(C)C)o1` [Compound 110, 5-(tert-butyl)-N-(2-methyl-4-(4-((1-methyl-1H-pyrazol-4-yl)amino)-1,3,5-triazin-2-yl)benzyl)-1,3,4-oxadiazole-2-carboxamide] yielded a pIC50 (BTK [2]) of 8.00 to 9.00.
